Earlier results, collected in US8633332B2, “Efficient isolation of cimiracemate A, and methods of use” (Purapharm Company Limited, priority 2009, dated 2014).
“Also recorded” adds a separate entry of the source.

How the values were obtained:
[1] = tested on: MAP kinase; conditions: human macrophages
[2] = tested on: specific transcription factors; conditions: human macrophages, LPS-induced
[3] = tested on: TNF-α; conditions: human macrophages

For `COc1ccc(/C=C/C(=O)OCC(=O)Cc2ccc(O)c(O)c2)cc1O` [Cimiracemate A], the “inhibition of LPS-induced MAP kinase activities (specific kinase phosphorylation)” value [1] is listed as “suppresses; also recorded: inhibit”, the “inhibition of activation of specific transcription factors” value [2] is listed as “suppresses; also recorded: inhibit” and the “suppression of LPS-induced TNF-α production” value [3] is listed as “suppresses; also recorded: suppress”.
